What was measured:
Experiment in all cases: Bliss excess, mean over the matrix (fraction); higher = more synergy
[1] = test system: A4-Fuk (B-Lymphoblastic Leukemia)
In short: (§1)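 Cell lines grown in DMEM/F12 or RPMI with 10% FBS were plated in 1536-well plates and held 24 hours at 37°C, 5% CO2 before 72 hours of exposure to two-drug dose matrices, with DMSO typically at 0.2%. CellTiter-Glo 2.0 luminescence gave viability, which was converted to inhibition. Vehicle wells were set to 0 and blank wells to 1. Combination Emax is the second-highest inhibition in the matrix, and Bliss excess is the observed combination effect minus the expected EA + EB − EA·EB, where EA and EB are the single-agent effects.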

[2] = test system: ALL-SIL (T-Lymphoblastic Leukemia)
In short: as §1

[3] = test system: CADO-ES1 (Ewing's Sarcoma)
In short: as §1

[4] = test system: COLO-668 (Small Cell Lung Carcinoma)
In short: as §1

[5] = test system: DU-145 (Prostate Carcinoma)
In short: as §1

[6] = test system: EFO-21 (Ovarian Carcinoma)
In short: as §1

[7] = test system: EJM (Plasma Cell Myeloma)
In short: as §1

EW-1 (Ewing's Sarcoma) = test system: EW-1 (Ewing's Sarcoma)
In short: as §1

[8] = test system: G-401 (Other Solid Carcinomas)
In short: as §1

[9] = test system: KOPN-8 (B-Lymphoblastic Leukemia)
In short: as §1

[10] = test system: LC-1-sq (Squamous Cell Lung Carcinoma)
In short: as §1

[11] = test system: MDA-MB-453 (Breast Carcinoma)
In short: as §1

[12] = test system: MOG-G-UVW (Low Grade Glioma)
In short: as §1

[13] = test system: NCI-H1355 (Lung Adenocarcinoma)
In short: as §1

[14] = test system: NCI-H1993 (Lung Adenocarcinoma)
In short: as §1

[15] = test system: NCI-H2122 (Lung Adenocarcinoma)
In short: as §1

[16] = test system: OACM5-1 (Esophageal Adenocarcinoma)
In short: as §1

[17] = test system: SKN (Other Solid Carcinomas)
In short: as §1

[18] = test system: SNU-387 (Hepatocellular Carcinoma)
In short: as §1

| Structure (SMILES) | Bliss excess [1] | Bliss excess [2] | Bliss excess [3] | Bliss excess [4] | Bliss excess [5] | Bliss excess [6] | Bliss excess [7] | Bliss excess (EW-1 (Ewing's Sarcoma)) | Bliss excess [8] | Bliss excess [9] | Bliss excess [10] | Bliss excess [11] | Bliss excess [12] | Bliss excess [13] | Bliss excess [14] | Bliss excess [15] | Bliss excess [16] | Bliss excess [17] | Bliss excess [18] |
| --- | --- | --- | --- | --- | --- | --- | --- | --- | --- | --- | --- | --- | --- | --- | --- | --- | --- | --- | --- |
| CC1(C)CCC(CN2CCN(c3ccc(C(=O)NS(=O)(=O)c4ccc(NCC5CCOCC5)c([N+](=O)[O-])c4)c(Oc4cnc5[nH]ccc5c4)c3)CC2)=C(c2ccc(Cl)cc2)C1 [Venetoclax] + C=CCn1c(=O)c2cnc(Nc3ccc(N4CCN(C)CC4)cc3)nc2n1-c1cccc(C(C)(C)O)n1 [AZD1775] (first compound max 1 µM, partner max 1 µM) | -0.0009 | 0.0792 | -0.0626 | 0.136 | -0.0098 | 0.0233 | -0.0641 | -0.0191 | -0.0898 | -0.0079 | -0.0039 | 0.0707 | 0.0612 | 0.0069 | 0.0027 | -0.0409 | -0.056 | 0.0355 | -0.0041 |
| CC1(C)CCC(CN2CCN(c3ccc(C(=O)NS(=O)(=O)c4ccc(NCC5CCOCC5)c([N+](=O)[O-])c4)c(Oc4cnc5[nH]ccc5c4)c3)CC2)=C(c2ccc(Cl)cc2)C1 [Venetoclax] + C[C@@H](Nc1cc(F)cc(F)c1)c1cc(C(=O)N(C)C)cc2c(=O)cc(N3CCOCC3)oc12 [AZD8186] (first compound max 1 µM, 7x7, partner max 3 µM) | -0.0046 | 0.0344 | 0.117 | 0.0418 | -0.0239 | -0.0441 | 0.0077 | -0.001 | -0.0275 | -0.0088 | -0.0254 | -0.0313 | -0.0111 | -0.0256 | 0.0036 | 0.0055 | 0.0321 | -0.023 | -0.0264 |
| CC(=O)Nc1cccc(-n2c(=O)n(C3CC3)c(=O)c3c(Nc4ccc(I)cc4F)n(C)c(=O)c(C)c32)c1 [Trametinib] + Cc1nc(-c2cn3c(n2)-c2ccc(-c4cnn(C(C)(C)C(N)=O)c4)cc2OCC3)n(C(C)C)n1 [Taselisib] (first compound max 1 µM, 7x7, partner max 10 µM) | 0.127 | 0.267 | -0.0253 | 0.289 | 0.0241 | 0.048 | 0.142 | 0.038 | 0.0082 | -0.101 | 0.24 | -0.0279 | -0.0446 | 0.0292 | 0.0556 | 0.0862 | 0.03 | -0.0353 | 0.185 |
| CC1(C)CCC(CN2CCN(c3ccc(C(=O)NS(=O)(=O)c4ccc(NCC5CCOCC5)c([N+](=O)[O-])c4)c(Oc4cnc5[nH]ccc5c4)c3)CC2)=C(c2ccc(Cl)cc2)C1 [Venetoclax] + CN(C)CCCOc1ccc(-c2ccc3ncc4c(c3c2)n(C2CCOCC2)c(=O)n4C)cn1 [AZD0156] (first compound max 1 µM, 7x7, partner max 1 µM) | 0.0004 | -0.0012 | -0.0204 | -0.0022 | -0.0261 | -0.0375 | -0.0047 | 0.0002 | -0.0712 | -0.0498 | -0.0007 | -0.0225 | 0.0408 | -0.0429 | -0.0681 | 0.0112 | -0.0017 | -0.0205 | -0.028 |
| CCc1c2c(nc3ccc(O)cc13)-c1cc3c(c(=O)n1C2)COC(=O)[C@]3(O)CC [SN-38] + CN(C)CCCOc1ccc(-c2ccc3ncc4c(c3c2)n(C2CCOCC2)c(=O)n4C)cn1 [AZD0156] (first compound max 0.3 µM, 7x7, partner max 1 µM) | 0.0222 | -0.0475 | 0.0718 | -0.0198 | -0.109 | -0.0125 | -0.0052 | 0.0608 | 0.0568 | 0.0362 | 0.0912 | -0.0505 | 0.0727 | -0.0107 | -0.0008 | 0.151 | -0.0642 | -0.0094 | -0.0373 |
| COc1cccc2c1C(=O)c1c(O)c3c(c(O)c1C2=O)C[C@@](O)(C(=O)CO)C[C@@H]3O[C@H]1C[C@H](N)[C@H](O)[C@H](C)O1 [Doxorubicin] + Cc1cc2ncnn2cc1Nc1ncc2c(n1)n(C1CCOCC1)c(=O)n2C [AZD7648] (first compound max 1 µM, 7x7, partner max 10 µM) | -0.018 | 0.0857 | 0.111 | 0.0633 | 0.0052 | -0.03 | 0.0833 | 0.126 | 0.0259 | 0.119 | 0.117 | 0.0432 | 0.101 | 0.0337 | -0.0182 | 0.0669 | 0.0577 | 0.0231 | 0.005 |
| COc1cccc(OCCCN)c1-c1cc(Nc2cnc(C#N)cn2)n[nH]1 [Prexasertib] + CN(C)CCCOc1ccc(-c2ccc3ncc4c(c3c2)n(C2CCOCC2)c(=O)n4C)cn1 [AZD0156] (first compound max 1 µM, 7x7, partner max 1 µM) | -0.0593 | -0.0838 | 0.0008 | -0.0161 | -0.0405 | -0.0684 | -0.0303 | -0.0145 | -0.0265 | 0.0171 | -0.0038 | -0.0509 | -0.0204 | -0.0429 | -0.0768 | -0.0115 | -0.0235 | 0.0519 | -0.0232 |
| COc1cccc(OCCCN)c1-c1cc(Nc2cnc(C#N)cn2)n[nH]1 [Prexasertib] + Cc1cc2ncnn2cc1Nc1ncc2c(n1)n(C1CCOCC1)c(=O)n2C [AZD7648] (first compound max 1 µM, 7x7, partner max 10 µM) | -0.0989 | -0.0258 | -0.0261 | -0.0459 | -0.0381 | -0.0446 | -0.0334 | -0.0217 | -0.0221 | 0.0298 | 0.0099 | -0.0143 | -0.0264 | -0.0405 | -0.0683 | -0.0289 | -0.026 | -0.0238 | -0.0434 |
| CC1(C)CCC(CN2CCN(c3ccc(C(=O)NS(=O)(=O)c4ccc(NCC5CCOCC5)c([N+](=O)[O-])c4)c(Oc4cnc5[nH]ccc5c4)c3)CC2)=C(c2ccc(Cl)cc2)C1 [Venetoclax] + Cn1cnc2c(F)c(Nc3ccc(Br)cc3Cl)c(C(=O)NOCCO)cc21 [Selumetinib] (first compound max 1 µM, 7x7, partner max 3 µM) | 0.0163 | 0.0035 | -0.0596 | 0.116 | -0.0121 | -0.069 | -0.006 | -0.0483 | -0.0264 | 0.113 | -0.0135 | -0.0284 | 0.0564 | -0.032 | -0.0358 | 0.0375 | 0.0243 | -0.0664 | -0.0601 |
| CC1(C)CCC(CN2CCN(c3ccc(C(=O)NS(=O)(=O)c4ccc(NCC5CCOCC5)c([N+](=O)[O-])c4)c(Oc4cnc5[nH]ccc5c4)c3)CC2)=C(c2ccc(Cl)cc2)C1 [Venetoclax] + CCN(CCO)CCCOc1ccc2c(Nc3cc(CC(=O)Nc4cccc(F)c4)[nH]n3)ncnc2c1 [AZD2811] (first compound max 1 µM, 7x7, partner max 1 µM) | 0.0781 | -0.0059 | 0.0054 | 0.0051 | -0.0375 | -0.0263 | 0.0261 | 0.0317 | -0.0473 | 0.0169 | -0.0099 | -0.0169 | -0.0186 | -0.0219 | -0.0002 | -0.0579 | -0.0406 | 0.0005 | -0.0422 |
| CCc1c2c(nc3ccc(O)cc13)-c1cc3c(c(=O)n1C2)COC(=O)[C@]3(O)CC [SN-38] + O=C(c1cc(Cc2n[nH]c(=O)c3ccccc23)ccc1F)N1CCN(C(=O)C2CC2)CC1 [Olaparib] (first compound max 0.3 µM, 7x7, partner max 10 µM) | 0.0164 | 0.0795 | 0.0253 | 0.0738 | 0.0282 | 0.0601 | 0.0404 | 0.0642 | – | 0.0271 | 0.0716 | 0.0456 | 0.036 | 0.0271 | 0.0628 | – | 0.0474 | 0.0246 | -0.0372 |
| CC1(C)CCC(CN2CCN(c3ccc(C(=O)NS(=O)(=O)c4ccc(NCC5CCOCC5)c([N+](=O)[O-])c4)c(Oc4cnc5[nH]ccc5c4)c3)CC2)=C(c2ccc(Cl)cc2)C1 [Venetoclax] + COc1cc(Nc2ncc3c(n2)-c2ccc(Cl)cc2C(c2c(F)cccc2OC)=NC3)ccc1C(=O)O [Alisertib] (first compound max 1 µM, 7x7, partner max 10 µM) | -0.026 | 0.0202 | 0.032 | 0.066 | -0.0117 | -0.0576 | -0.0024 | 0.174 | -0.0135 | 0.036 | -0.0116 | -0.0415 | -0.0265 | -0.0205 | -0.029 | -0.0572 | 0.0758 | -0.0051 | -0.0456 |
| COc1cccc(OCCCN)c1-c1cc(Nc2cnc(C#N)cn2)n[nH]1 [Prexasertib] + C[C@@H]1COCCN1C2=NC(=NC(=C2)C3(CC3)[S@](=N)(=O)C)C4=C5C=CNC5=NC=C4 [AZD6738] (first compound max 1 µM, 7x7, partner max 10 µM) | -0.0602 | -0.0175 | -0.0348 | 0.0269 | -0.0844 | -0.02 | -0.044 | -0.0158 | 0.0399 | -0.0539 | -0.0361 | -0.0036 | 0.0317 | 0.0276 | -0.0176 | -0.0262 | -0.0153 | -0.02 | 0.0035 |
| COc1cccc(OCCCN)c1-c1cc(Nc2cnc(C#N)cn2)n[nH]1 [Prexasertib] + C=CCn1c(=O)c2cnc(Nc3ccc(N4CCN(C)CC4)cc3)nc2n1-c1cccc(C(C)(C)O)n1 [AZD1775] (first compound max 1 µM, partner max 1 µM) | -0.0205 | 0.0648 | 0.0737 | 0.0952 | 0.0361 | -0.0075 | 0.0228 | 0.0461 | 0.0612 | 0.0438 | 0.0581 | 0.0702 | 0.0656 | -0.0039 | 0.0596 | 0.0341 | 0.105 | 0.0515 | 0.081 |
| COc1cccc(OCCCN)c1-c1cc(Nc2cnc(C#N)cn2)n[nH]1 [Prexasertib] + O=C(c1cc(Cc2n[nH]c(=O)c3ccccc23)ccc1F)N1CCN(C(=O)C2CC2)CC1 [Olaparib] (first compound max 1 µM, 7x7, partner max 10 µM) | 0.0189 | -0.0222 | -0.0315 | -0.0759 | -0.0144 | -0.1 | -0.0434 | -0.0144 | -0.166 | -0.0105 | -0.0468 | -0.128 | -0.0035 | -0.0448 | -0.0685 | -0.0471 | -0.054 | -0.0209 | 0.0083 |
